According to patent publication US9938322B2, “β-hairpin peptidomimetics” (priority 2013, dated 2018):
*1 amine or outer side, *2 acyl side, *3 side chain or, on linkers, in order; H or OH if unused. Where a SMILES comes first, the peptide text is derived from it. Side-chain parts run from the residue outwards. [ ]: non-standard residue; d: D form. X2 = O=C([C@H](CCNCc1ccccn1)N[*:1])[*:2]; Phe(4-NH2) = Nc1ccc(C[C@H](N)C(=O)O)cc1; Pro(3S-OH) = O=C(O)[C@H]1NCC[C@@H]1O; Cha = N[C@@H](CC1CCCCC1)C(=O)O; aThr = C[C@H](O)[C@H](N)C(=O)O; Chg = N[C@H](C(=O)O)C1CCCCC1; Phg = N[C@H](C(=O)O)c1ccccc1; Tle = CC(C)(C)[C@H](N)C(=O)O; dDab = NCC[C@@H](N)C(=O)O; Orn = NCCC[C@H](N)C(=O)O; Dab = NCC[C@H](N)C(=O)O; Nva = CCC[C@H](N)C(=O)O; Abu = CC[C@H](N)C(=O)O; Dap = NC[C@H](N)C(=O)O

Test system: human red blood cells (hRBC)
Experiment: Hemolysis of human red blood cells
Type: cell-based
Settings: red cells of human, 1 h, 100
Summary of the method: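 Washed fresh human erythrocytes (20% v/v, about 0.9×10^9 cells/ml final) incubated with peptide at 100 μg/ml for 1 h at 37° C with shaking. Supernatant OD540 read; hemolysis expressed relative to 2.5% Triton X-100 (100%) and PBS with 0.001% acetic acid (0%).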

| SMILES | Hemolysis at 100 μg/ml |
| --- | --- |
| CC(C)[C@@H]1NC(=O)[C@@H]2CCCN2C(=O)[C@H]2CCCN2C(=O)[C@H](CO)NC(=O)[C@H](C)NC(=O)[C@H](C(C)(C)C)NC(=O)[C@H](CCN)NC(=O)[C@H](Cc2c[nH]c3ccccc23)NC(=O)[C@H](CCN)NC(=O)[C@@H](CCN)NC(=O)[C@H](CCCN)NC(=O)[C@H](CCN)NC(=O)[C@H](Cc2ccc(O)cc2)NC(=O)[C@H](CO)NC1=O [compound 45] (cyclo(VSY[Dab][Orn][dDab][Dab]W[Dab][Tle]AS[dP]P)) | 2% |
| CC(C)C[C@@H]1NC(=O)[C@@H]2[C@@H](O)CCN2C(=O)[C@H]2CCCN2C(=O)[C@H](CO)NC(=O)[C@H](C)NC(=O)[C@H](C(C)(C)C)NC(=O)[C@H](CCN)NC(=O)[C@H](Cc2c[nH]c3ccccc23)NC(=O)[C@H](CCN)NC(=O)[C@@H](CCN)NC(=O)[C@H](CCCN)NC(=O)[C@H](CCN)NC(=O)[C@H](Cc2ccc(O)cc2)NC(=O)[C@H](CO)NC1=O [compound 57] (cyclo(AS[dP][Pro(3S-OH)]LSY[Dab][Orn][dDab][Dab]W[Dab][Tle])) | 1% |
| CC(C)C[C@@H]1NC(=O)[C@@H]2CCCN2C(=O)[C@H]2CCCN2C(=O)[C@H](CO)NC(=O)[C@H](CO)NC(=O)[C@H](Cc2c[nH]c3ccccc23)NC(=O)[C@H](CCN)NC(=O)[C@H](Cc2c[nH]c3ccccc23)NC(=O)[C@H](CCN)NC(=O)[C@@H](CCN)NC(=O)[C@H](CCCN)NC(=O)[C@H](CCN)NC(=O)[C@H](Cc2ccc(O)cc2)NC(=O)[C@H](CO)NC1=O [compound 111] (cyclo(LSY[Dab][Orn][dDab][Dab]W[Dab]WSS[dP]P)) | 1% |
| CCC[C@@H]1NC(=O)[C@@H]2CCCN2C(=O)[C@H]2CCCN2C(=O)[C@H](CO)NC(=O)[C@H](C)NC(=O)[C@H](C2CCCCC2)NC(=O)[C@H](CCN)NC(=O)[C@H](Cc2c[nH]c3ccccc23)NC(=O)[C@H](CCN)NC(=O)[C@@H](CCN)NC(=O)[C@H](CCCN)NC(=O)[C@H](CCN)NC(=O)[C@H](CC2CCCCC2)NC(=O)[C@H](C)NC1=O [compound 150] (cyclo([Nva]A[Cha][Dab][Orn][dDab][Dab]W[Dab][Chg]AS[dP]P)) | 4% |
| CCC[C@@H]1NC(=O)[C@@H]2CCCN2C(=O)[C@H]2CCCN2C(=O)[C@H](CO)NC(=O)[C@H](C)NC(=O)[C@H](CC2CCCCC2)NC(=O)[C@H](CCN)NC(=O)[C@H](Cc2c[nH]c3ccccc23)NC(=O)[C@H](CCN)NC(=O)[C@@H](CCN)NC(=O)[C@H](CCCN)NC(=O)[C@H](CCN)NC(=O)[C@H](Cc2ccc(O)cc2)NC(=O)[C@H](CO)NC1=O [compound 93] (cyclo([Nva]SY[Dab][Orn][dDab][Dab]W[Dab][Cha]AS[dP]P)) | 5% |
| CC[C@H](C)[C@@H]1NC(=O)[C@@H]2CCCN2C(=O)[C@H]2CCCN2C(=O)[C@H](CO)NC(=O)[C@H](C)NC(=O)[C@H](C(C)(C)C)NC(=O)[C@H](CCN)NC(=O)[C@H](Cc2c[nH]c3ccccc23)NC(=O)[C@H](CCN)NC(=O)[C@@H](CCN)NC(=O)[C@H](CCCN)NC(=O)[C@H](CCN)NC(=O)[C@H](Cc2ccc(O)cc2)NC(=O)[C@H]([C@H](C)O)NC1=O [compound 86] (cyclo(I[aThr]Y[Dab][Orn][dDab][Dab]W[Dab][Tle]AS[dP]P)) | 1% |
| CC[C@H](C)[C@@H]1NC(=O)[C@@H]2CCCN2C(=O)[C@H]2CCCN2C(=O)[C@H](CO)NC(=O)[C@H](C)NC(=O)[C@H](C(C)(C)C)NC(=O)[C@H](CCN)NC(=O)[C@H](Cc2c[nH]c3ccccc23)NC(=O)[C@H](CCN)NC(=O)[C@@H](CCN)NC(=O)[C@H](CCCN)NC(=O)[C@H](CCN)NC(=O)[C@H](Cc2ccc(N)cc2)NC(=O)[C@H](CO)NC1=O [compound 83] (cyclo(IS[Phe(4-NH2)][Dab][Orn][dDab][Dab]W[Dab][Tle]AS[dP]P)) | 0.5% |
| CC(C)[C@@H]1NC(=O)[C@@H]2[C@@H](O)CCN2C(=O)[C@H]2CCCN2C(=O)[C@H](CO)NC(=O)[C@H](C)NC(=O)[C@H](C(C)(C)C)NC(=O)[C@H](CCN)NC(=O)[C@H](Cc2c[nH]c3ccccc23)NC(=O)[C@H](CCN)NC(=O)[C@@H](CCN)NC(=O)[C@H](CCCN)NC(=O)[C@H](CCN)NC(=O)[C@H](Cc2ccc(O)cc2)NC(=O)[C@H](CO)NC1=O [compound 56] (cyclo(AS[dP][Pro(3S-OH)]VSY[Dab][Orn][dDab][Dab]W[Dab][Tle])) | 1% |
| CC[C@H](C)[C@@H]1NC(=O)[C@@H]2CCCN2C(=O)[C@H]2CCCN2C(=O)[C@H]([C@@H](C)O)NC(=O)[C@H]([C@@H](C)O)NC(=O)[C@H](C(C)(C)C)NC(=O)[C@H](CCN)NC(=O)[C@H](Cc2c[nH]c3ccccc23)NC(=O)[C@H](CCN)NC(=O)[C@@H](CCN)NC(=O)[C@H](CCN)NC(=O)[C@H](CCN)NC(=O)[C@H](Cc2ccc(O)cc2)NC(=O)[C@H](C)NC1=O [compound 133] (cyclo(IAY[Dab][Dab][dDab][Dab]W[Dab][Tle]TT[dP]P)) | 1% |
| CC(=O)N[C@H](C(=O)NC[C@@H]1NC(=O)[C@H](Cc2c[nH]c3ccccc23)NC(=O)[C@@H]2CCCN2C(=O)[C@H]2CCCN2C(=O)[C@H](CO)NC(=O)[C@H](C)NC(=O)[C@H](C(C)(C)C)NC(=O)[C@H](CCN)NC(=O)[C@H](Cc2c[nH]c3ccccc23)NC(=O)[C@H](CCN)NC(=O)[C@@H](CCN)NC(=O)[C@H](CCCN)NC(=O)[C@H](CCN)NC(=O)[C@H](CC2CCCCC2)NC1=O)[C@@H](C)O [compound 15] (cyclo(W[Dap]([Thr-Ac])[Cha][Dab][Orn][dDab][Dab]W[Dab][Tle]AS[dP]P)) | 1% |
| CC(C)C[C@@H]1NC(=O)[C@@H]2CCCN2C(=O)[C@H]2CCCN2C(=O)[C@H](CO)NC(=O)[C@H](C)NC(=O)[C@H](c2ccccc2)NC(=O)[C@H](CCN)NC(=O)[C@H](Cc2c[nH]c3ccccc23)NC(=O)[C@H](CCN)NC(=O)[C@@H](CCN)NC(=O)[C@H](CCCN)NC(=O)[C@H](CCN)NC(=O)[C@H](Cc2ccc(O)cc2)NC(=O)[C@H](CO)NC1=O [compound 107] (cyclo(LSY[Dab][Orn][dDab][Dab]W[Dab][Phg]AS[dP]P)) | 2% |
| C[C@@H]1NC(=O)[C@H](C(C)(C)C)NC(=O)[C@H](CCN)NC(=O)[C@H](Cc2c[nH]c3ccccc23)NC(=O)[C@H](CCN)NC(=O)[C@@H](CCN)NC(=O)[C@H](CCCN)NC(=O)[C@H](CCNCc2ccccn2)NC(=O)[C@H](CC2CCCCC2)NC(=O)[C@H](CN)NC(=O)[C@H](Cc2c[nH]c3ccccc23)NC(=O)[C@@H]2CCCN2C(=O)[C@H]2CCCN2C(=O)[C@H](CO)NC1=O [Ex. 11] (cyclo(W[Dap][Cha][X2][Orn][dDab][Dab]W[Dab][Tle]AS[dP]P)) | 0% |
| CC(C)C[C@@H]1NC(=O)[C@@H]2CCCN2C(=O)[C@H]2CCCN2C(=O)[C@H](CO)NC(=O)[C@H](C)NC(=O)[C@H](C(C)(C)C)NC(=O)[C@H](CCN)NC(=O)[C@H](Cc2c[nH]c3ccccc23)NC(=O)[C@H](CCN)NC(=O)[C@@H](CCN)NC(=O)[C@H](CCCN)NC(=O)[C@H](CCN)NC(=O)[C@H](Cc2ccccc2)NC(=O)[C@H](CO)NC1=O [compound 28] (cyclo(LSF[Dab][Orn][dDab][Dab]W[Dab][Tle]AS[dP]P)) | 2% |
| CC(C)C[C@@H]1NC(=O)[C@@H]2CCCN2C(=O)[C@H]2CCCN2C(=O)[C@H](CO)NC(=O)[C@H](C)NC(=O)[C@H](C(C)(C)C)NC(=O)[C@H](CCN)NC(=O)[C@H](Cc2c[nH]c3ccccc23)NC(=O)[C@H](CCCNC(=N)N)NC(=O)[C@@H](CCN)NC(=O)[C@H](CCCN)NC(=O)[C@H](CCN)NC(=O)[C@H](Cc2ccc(O)cc2)NC(=O)[C@H](CO)NC1=O [compound 102] (cyclo(LSY[Dab][Orn][dDab]RW[Dab][Tle]AS[dP]P)) | 0% |
| CC[C@@H]1NC(=O)[C@H]([C@@H](C)CC)NC(=O)[C@@H]2CCCN2C(=O)[C@H]2CCCN2C(=O)[C@H](CO)NC(=O)[C@H](C)NC(=O)[C@H](C(C)(C)C)NC(=O)[C@H](CCN)NC(=O)[C@H](Cc2c[nH]c3ccccc23)NC(=O)[C@H](CCN)NC(=O)[C@@H](CCN)NC(=O)[C@H](CCCN)NC(=O)[C@H](CCN)NC(=O)[C@H](Cc2ccc(O)cc2)NC1=O [compound 126] (cyclo(I[Abu]Y[Dab][Orn][dDab][Dab]W[Dab][Tle]AS[dP]P)) | 0.5% |
| CC(C)C[C@@H]1NC(=O)[C@@H]2CCCN2C(=O)[C@H]2CCCN2C(=O)[C@H](CO)NC(=O)[C@H](C)NC(=O)[C@H](C(C)(C)C)NC(=O)[C@H](CCN)NC(=O)[C@H](Cc2c[nH]c3ccccc23)NC(=O)[C@H](CCN)NC(=O)[C@@H](CCN)NC(=O)[C@H](CCN)NC(=O)[C@H](CCN)NC(=O)[C@H](Cc2ccc(O)cc2)NC(=O)[C@H](CO)NC1=O [compound 96] (cyclo(LSY[Dab][Dab][dDab][Dab]W[Dab][Tle]AS[dP]P)) | 1% |
| C[C@@H]1NC(=O)[C@H](C(C)(C)C)NC(=O)[C@H](CCN)NC(=O)[C@H](Cc2c[nH]c3ccccc23)NC(=O)[C@H](CCN)NC(=O)[C@@H](CCN)NC(=O)[C@H](CCCN)NC(=O)[C@H](CCN)NC(=O)[C@H](Cc2ccc(O)cc2)NC(=O)[C@H](CN)NC(=O)[C@H](Cc2ccccc2)NC(=O)[C@@H]2CCCN2C(=O)[C@H]2CCCN2C(=O)[C@H](CO)NC1=O [compound 160] (cyclo(F[Dap]Y[Dab][Orn][dDab][Dab]W[Dab][Tle]AS[dP]P)) | 1% |
| CC(C)[C@@H]1NC(=O)[C@@H]2CCCN2C(=O)[C@H]2CCCN2C(=O)[C@H](CO)NC(=O)[C@H](C)NC(=O)[C@H](C(C)(C)C)NC(=O)[C@H](CCN)NC(=O)[C@H](Cc2c[nH]c3ccccc23)NC(=O)[C@H](CCN)NC(=O)[C@H](CCN)NC(=O)[C@H](CCCN)NC(=O)[C@H](CCN)NC(=O)[C@H](Cc2ccc(O)cc2)NC(=O)[C@H](CO)NC1=O [compound 49] (cyclo(VSY[Dab][Orn][Dab][Dab]W[Dab][Tle]AS[dP]P)) | 1% |
| CC(C)C[C@@H]1NC(=O)[C@@H]2CCCN2C(=O)[C@H]2CCCN2C(=O)[C@H](CO)NC(=O)[C@H](C)NC(=O)[C@H](C(C)(C)C)NC(=O)[C@H](CCN)NC(=O)[C@H](Cc2c[nH]c3ccccc23)NC(=O)[C@H](CN)NC(=O)[C@@H](CCN)NC(=O)[C@H](CCCN)NC(=O)[C@H](CCN)NC(=O)[C@H](Cc2ccc(O)cc2)NC(=O)[C@H](CO)NC1=O [Ex. 103] (cyclo(LSY[Dab][Orn][dDab][Dap]W[Dab][Tle]AS[dP]P)) | 1% |
